The results in this text go back to PMC12668289 (RSC Chemical Biology, 2025).

The subject of assay [1] is Eluc. The assay is described as follows: BL emission spectra of luciferase-luciferin reactions. Format: biochemical, Pyrearinus termitilluminans. The following applies: 100 mM HEPES pH 8.0, 25 °C. On the procedure: (§1) 1.5 Bioluminescence characterizations
(§2) Reactions of luciferases, including Photinus pyralis luciferase (Fluc), Phrixothrix hirtus luciferase (SLR), Pyrearinus termitilluminans […]
(§3) mM D-LH 2 analogues, 3 mM ATP, 6 mM MgCl2, and 10 µM luciferase in 0.2 ml of 100 mM HEPES-NaOH pH 8.0. The bioluminescence (BL) emission characteristics were recorded using a microplate reader in a BL mode (Thermo Scientific, Varioskan, LUX multimode). […]
sphere-based multichannel spectrometer with a charge-coupled device (CCD) detector. […]

Assay [2] relates to SLR. The assay is described as follows: Steady-state kinetics of luciferase reactions (luminometer). Format: biochemical, Phrixothrix hirtus. Particulars: for Substrate inhibition: concentration range tested 0-300; for appKm: pH 8.0, 25 °C; for Relative kcat: relative to 2a compound. The method, then: as §1, §2, §3
BL of the
(§4) The reactions were initiated by mixing 25 µl of premixed solution of luciferases/D-LH 2 analogues with 125 µl of 3 mM ATP and 6 mM MgCl2 in 100 mM HEPES-NaOH (pH 8.0). The light intensity (relative light unit, RLU) during 0-300 sec was then collected to represent the overall luciferase activity which was further used for calculating kinetic parameters from the Michaelis-Menten equation. […]

Assay [3] relates to Pmluc-WT. The assay is described as above. Particulars: for Substrate inhibition: concentration range tested 0-300; for appKm: pH 8.0, 25 °C; for Relative kcat: relative to 2a compound. Format: biochemical, Pyrocoelia miyako. On the procedure: as §1, §2, §3
BL of the
as §4

Assay [4] deals with Pmluc-N230S. The assay is described as above. Format: biochemical, Pyrocoelia miyako. Also on record: Substrate inhibition: unit not given here. Particulars: for appKm: pH 8.0, 25 °C; for Relative kcat: relative to 2a compound. The method, then:
as §1, §2, §3
BL of the
as §4

Assay [5] concerns SLR. Put plainly: Bioluminescence quantum yield measurement. Type of assay: biochemical, Phrixothrix hirtus. The method, then:
as §1, §2
mM D-LH 2 analogues, 3 mM ATP, 6 mM MgCl2, and 10 µM luciferase in 0.2 ml of 100 mM HEPES-NaOH pH 8.0. […]
A reference light source was used for calibrating a sphere spectrometer equipped with a cooled CCD detector.
The absolute responsivity of each luciferase-luciferin reaction was calculated based on a linear standardization between total photon flux measured using the sphere spectrometer equipped with a cooled CCD detector and relative count values measured by a luminometer. Total photons emitted from the bioluminescence reaction of each luciferase-luciferin pair were measured using a calibrated luminometer. A reaction containing 0.5-5 nM of each luciferin, 3 mM ATP, 3 mM MgCl2 in 100 mM Tris-HCl (total volume of 200 µl) was placed into the luminometer and background signals were recorded. The reaction was then initiated by adding 20 µl of 0.5 […]
(§5) mM purified luciferases into the reaction tube and the bioluminescence signals were monitored until it decayed to the background level.

Assay [6] concerns the target Fluc (Photinus pyralis, UniProt P08659). Put plainly: biochemical. Particulars: ITC; for G (free energy of binding) / H (enthalpy of binding): 25 °C; for Kd: Table S9. Format: binding.
In assay [7] the test system is HepG2 cell line stably expressing a Fluc reporter. The assay is described as follows: BL spectra in live HepG2 cells stably expressing Fluc. Type of assay: cell-based, human. The following applies: live HepG2, DMEM with 25 mM HEPES-NaOH pH 7.0, 37 °C, 100 µM. On the procedure: as §5
The QY value was calculated from the measured total numbers of photon emission from the reaction of each D-LH 2 analogue with […]
1.6 Mammalian cell line culture and bioluminescence assays
Human embryotic kidney (HEK293T) cells, human hepatocyte carcinoma cancer (HepG2) cells, human cervical carcinoma (HeLa) cells, and Abelson leukemia virus-transformed cell line derived from BALB/c mice (RAW264.7) cells (American Type Culture Collection, USA) were grown in Dulbecco’s Modified Eagle Medium (DMEM) in low glucose supplemented with 10% (v/v) heat-inactivated fetal bovine serum (FBS) plus 1% (w/v) penicillin-streptomycin. Four types of cells were maintained at 37 °C with 5% CO2. For transient transfection, […]
supplemented with 10% (v/v) heat-inactivated FBS. Before transfection, the cultured medium was removed and added a fresh minimal essential medium with reduced amount of serum (opti-MEMTM) to each well. Cells were transfected by adding 0.07 pmol of pGL4.13 [luc2/SV40] as a target vector and 0.007 pmol of pRL-TK as a control vector using lipofectamineTM3000 (Thermo Fisher Scientific) in opti-MEMTM and lipofection. Cells were incubated for 5 h and then the supernatant medium was replaced by a fresh working DMEM medium.
Cells were harvested by washing with 500 μl PBS buffer (pH 7.4). The cells were detached […]
freezing-thawing process. […]
kept at -80 °C until used.
The 150 µl assay reaction was carried out in 150 µl 100 mM HEPES-NaOH (pH 8.0). The 25 µl […]
100 mM HEPES-NaOH (pH 8.0). Then, the RLU signals of each D-LH 2 and analogues were compared. […]
proteins) and a substrate cocktail reagent (3 mM ATP and 6 mM MgCl2 in 100 mM HEPES pH 8.0). The detection sensitivity of crude lysate of HEK293T expressing Fluc was determined by measuring RLU of the reaction with a luminometer with concentrations under the linearity […]
After the cells reached the highest BL intensity, the dish was recorded with a highly sensitive CCD […]

Where “and” joins values, the source holds several entries; their conditions need not be identical. Equal values may be shown once. A value given as a limit tells only on which side of the number the result lay.

Sequence of Fluc (P08659 whole entry): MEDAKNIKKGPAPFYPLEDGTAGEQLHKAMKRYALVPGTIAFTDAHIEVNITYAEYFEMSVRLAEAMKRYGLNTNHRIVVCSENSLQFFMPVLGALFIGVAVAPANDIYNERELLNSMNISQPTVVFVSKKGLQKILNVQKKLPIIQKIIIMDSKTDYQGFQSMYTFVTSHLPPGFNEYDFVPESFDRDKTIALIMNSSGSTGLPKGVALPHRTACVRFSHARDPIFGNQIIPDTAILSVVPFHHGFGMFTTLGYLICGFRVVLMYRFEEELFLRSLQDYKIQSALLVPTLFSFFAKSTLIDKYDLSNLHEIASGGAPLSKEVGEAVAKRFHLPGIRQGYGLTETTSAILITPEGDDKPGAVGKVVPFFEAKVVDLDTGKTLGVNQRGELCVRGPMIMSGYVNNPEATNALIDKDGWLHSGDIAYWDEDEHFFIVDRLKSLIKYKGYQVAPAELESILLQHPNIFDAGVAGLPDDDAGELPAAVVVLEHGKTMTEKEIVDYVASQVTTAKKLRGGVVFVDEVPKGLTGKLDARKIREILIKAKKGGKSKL

For the compound `O=C(O)[C@H]1CSC(c2nc3ccc(O)cc3s2)=N1` [Compound 2a, D-luciferin, reference compound], the “Bioluminescence wavelength (BLλ)” value in assay [1] came to 537 nm. The Substrate inhibition in assay [2] and in assay [3] was over 4 µM in each case. For the same compound, the values for the appKm in assay [2], in assay [3] and in assay [4] (Pmluc-N230S) were 0.5 µM, 0.1 µM and 0.6 µM, respectively. The Quantum yield in assay [5] is 0.16 and 0.160 ± 0.005. In assay [6], this compound gave a N site of 1.00. Further, the “BL spectrum peak in live cells” value in assay [7] was 604 nm.
On to `Cc1cc2nc(C3=N[C@@H](C(=O)O)CS3)sc2cc1O` [Compound 2b, 5’-methyl-D-luciferin], for which the “Bioluminescence wavelength (BLλ)” value in assay [1] came to 560 nm. Moreover, in assay [2], the Substrate inhibition was over 14 µM, the appKm is 0.7 µM and the Relative kcat stood at 157.3. In assay [3], this compound returned a Substrate inhibition of over 2 µM, an appKm of 0.4 µM and a Relative kcat of 110.0. Further, the “Relative kcat (BL intensity), fold of 2a” value in assay [4] (Pmluc N230S, compared to 2a) is 5.2 fold. Further, the Substrate inhibition in assay [4] (Pmluc-N230S, concentration range tested 0-300) was over 4.0. Further, in assay [4] (Pmluc-N230S), the appKm amounted to 1.8 µM and the Relative kcat was 518.5. Also, the Quantum yield in assay [5] is 0.19 and 0.190 ± 0.005. In assay [6], the N site stood at 0.70; the “G (free energy of binding)” value was -6.70 kcal/mol; the “H (enthalpy of binding)” value was -1.83 kcal/mol; the Kd (in general, the constant that tells how readily two partners part at equilibrium) is 13.4 µM. The “BL spectrum peak in live cells” value in assay [7] was 609 nm.
`Cc1cc2nc(C3=N[C@@H](C(=O)O)CS3)sc2c(C)c1O` [Compound 2c, 5’,7’-di-methyl-D-luciferin]: the “Bioluminescence wavelength (BLλ)” value in assay [1] is recorded as 573 nm. Moreover, in assay [2], the Substrate inhibition is over 2.1 µM, the appKm is recorded as 0.5 µM and the Relative kcat came to 134.8. In assay [3], this compound returned a Substrate inhibition of over 8.3 µM, an appKm of 1.8 µM and a Relative kcat of 7.7. Also, in assay [4] (Pmluc-N230S), the appKm came out at 2.6 µM and the Relative kcat turned out to be 48.1. Also, in assay [5], the Quantum yield was 0.16 and 0.160 ± 0.003. For the same compound, in assay [6], the N site was 0.80; the “G (free energy of binding)” value was -6.08 kcal/mol; the “H (enthalpy of binding)” value is given as -3.20 kcal/mol; the affinity, expressed as Kd, was 35.1 µM. In assay [7], the “BL spectrum peak in live cells” value is on record as 638 nm.
